Laboratory results reported in article PMC4114755, “Identification of Polyketide Inhibitors Targeting 3-Dehydroquinate Dehydratase in the Shikimate Pathway of Enterococcus faecalis” (PLoS ONE, 2014).

T1: efDHQase (3-dehydroquinate dehydratase from Enterococcus faecalis; also DEF) (Enterococcus faecalis, UniProt P36923)
T1 construct: gene aroD; full-length aroD in modified pET-15b, N-terminal 10xHis tag removed with thrombin; expressed in E. coli aroD- pTara; homodimer; catalytic Lys170
T1 sequence (P36923 1-253): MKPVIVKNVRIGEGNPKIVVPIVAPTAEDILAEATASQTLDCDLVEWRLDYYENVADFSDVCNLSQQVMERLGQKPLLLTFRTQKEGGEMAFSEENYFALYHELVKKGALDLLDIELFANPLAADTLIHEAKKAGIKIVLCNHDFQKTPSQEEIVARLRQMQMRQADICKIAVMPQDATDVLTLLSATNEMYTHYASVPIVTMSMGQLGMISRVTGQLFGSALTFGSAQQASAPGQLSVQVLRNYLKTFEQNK

B1: efDHQase (3-dehydroquinate dehydratase from Enterococcus faecalis; also DEF) (Enterococcus faecalis V583) (protein)
chain: T1 sequence (P36923 1-253)
notes: full-length aroD in modified pET-15b, N-terminal 10xHis tag removed with thrombin; expressed in E. coli aroD- pTara; homodimer; catalytic Lys170

biological target: T1, efDHQase (3-dehydroquinate dehydratase from Enterococcus faecalis; also DEF); assay: efSHD-coupled NADPH oxidation assay, […] nm; format: biochemical; conditions: not given

Point of comparison: `O=c1c(O)c(-c2ccc(O)c(O)c2)oc2c(O[C@@H]3O[C@H](CO)[C@@H](O)[C@H](O)[C@H]3O)c(O)cc(O)c12` [Gossypin], Ki 79 ± 14 µM. Against it:
- C[C@@H]1O[C@@H](OC[C@H]2O[C@@H](Oc3c(-c4ccc(O)c(O)c4)oc4cc(O)cc(O)c4c3=O)[C@H](O)[C@@H](O)[C@@H]2O)[C@H](O)[C@H](O)[C@H]1O [Rutin] — 2.7-fold higher, 210 ± 28 µM
- O=c1ccc2cc(O[C@@H]3O[C@H](CO)[C@@H](O)[C@H](O)[C@H]3O)c(O)cc2o1 [Aesculine] — 2.3-fold higher, 180 ± 38 µM
- O=c1cc(-c2ccc(O)c(O[C@@H]3O[C@H](CO)[C@@H](O)[C@H](O)[C@H]3O)c2)oc2cc(O[C@@H]3O[C@H](CO)[C@@H](O)[C@H](O)[C@H]3O)cc(O)c12 [Luteolin-3′-7-diglucoside] — within error, 89 ± 3 µM
- O=c1ccc2ccc(O)cc2o1 [7-Hydroxycoumarin] — 1.9-fold lower, 42 ± 19 µM
- O=C(/C=C/c1ccc(O)c(O)c1)c1ccc(O[C@@H]2O[C@H](CO)[C@@H](O)[C@H](O)[C@H]2O)c(O)c1O [Marein] — 4.3-fold higher, 340 ± 79 µM
- C[C@@H]1O[C@@H](O[C@H]2[C@H](Oc3cc(O)c4c(=O)cc(-c5ccc(O)cc5)oc4c3)O[C@H](CO)[C@@H](O)[C@@H]2O)[C@H](O)[C@H](O)[C@H]1O [Rhoifolin] — 4.2-fold lower, 19 ± 9 µM
- O=c1cc(-c2ccc(O)c(O)c2)oc2cc(O[C@@H]3O[C@H](CO)[C@@H](O)[C@H](O)[C@H]3O)cc(O)c12 [Luteolin-7-glucoside] — within error, 69 ± 16 µM
- O=c1cc(-c2ccc(O)c(O)c2)oc2cc(O)c([C@@H]3O[C@H](CO)[C@@H](O)[C@H](O)[C@H]3O)c(O)c12 [Homoorientin] — 1.8-fold higher, 140 ± 11 µM

substrate: O=C1C[C@@](O)(C(=O)O)C[C@@H](O)[C@@H]1O; assay: purified protein; format: biochemical, Enterococcus faecalis; conditions: 0.25 mM NADPH, 50 mM HEPES pH 7.5, 25°C, 10 nM efSHD as coupling enzyme

In the case of B1, the Km is reported as 65 µM.

B1 gave a kcat of 110 s⁻¹.
